Test results: PubChem BioAssay AID2060886 (Molecular Pharmacology Branch, DTP, NCI, 2025)

System: 653999-131-R-J2-PDC complex spheroids, growth inhibition
Assay: Anticancer human tumor 653999-131-R-J2-PDC patient-derived lung adenocarcinoma cell line growth inhibition [RAS]
Details: for IC50: curve of first compound; for viability, T/C: stronger effect = lower value
Summary of the method: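 Multi-cell-type spheroids: tumor cells plus HUVEC endothelial cells and mesenchymal stem cells. RAS-pathway inhibitors were combined with targeted agents, each dosed in half-log steps down from clinical Cmax, or from 10 microM when Cmax was unknown.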

[1] = second compound 0.000949 µM, first compound 0.0316 µM
[2] = second compound 0.000949 µM, first compound 0.1 µM
[3] = second compound 0.000949 µM, first compound 0.316 µM
[4] = second compound 0.000949 µM, first compound 1 µM
[5] = second compound 0.000949 µM, first compound 3.16 µM
[6] = second compound 0.000949 µM, first compound 10 µM
[7] = second compound 0.003 µM, first compound 0.0316 µM
[8] = second compound 0.003 µM, first compound 0.1 µM
[9] = second compound 0.003 µM, first compound 0.316 µM
[10] = second compound 0.003 µM, first compound 1 µM
[11] = second compound 0.003 µM, first compound 3.16 µM
[12] = second compound 0.003 µM, first compound 10 µM
[13] = second compound 0.00949 µM, first compound 0.0316 µM
[14] = second compound 0.00949 µM, first compound 0.1 µM
[15] = second compound 0.00949 µM, first compound 0.316 µM
[16] = second compound 0.00949 µM, first compound 1 µM
[17] = second compound 0.00949 µM, first compound 3.16 µM
[18] = second compound 0.00949 µM, first compound 10 µM
[19] = second compound 0.03 µM, first compound 0.0316 µM
[20] = second compound 0.03 µM, first compound 0.1 µM
[21] = second compound 0.03 µM, first compound 0.316 µM
[22] = second compound 0.03 µM, first compound 1 µM
[23] = second compound 0.03 µM, first compound 3.16 µM
[24] = second compound 0.03 µM, first compound 10 µM
[25] = second compound 0.0949 µM, first compound 0.0316 µM
[26] = second compound 0.0949 µM, first compound 0.1 µM
[27] = second compound 0.0949 µM, first compound 0.316 µM
[28] = second compound 0.0949 µM, first compound 1 µM
[29] = second compound 0.0949 µM, first compound 3.16 µM
[30] = second compound 0.0949 µM, first compound 10 µM
[31] = second compound 0.3 µM, first compound 0.0316 µM
[32] = second compound 0.3 µM, first compound 0.1 µM
[33] = second compound 0.3 µM, first compound 0.316 µM
[34] = second compound 0.3 µM, first compound 1 µM
[35] = second compound 0.3 µM, first compound 3.16 µM
[36] = second compound 0.3 µM, first compound 10 µM
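Also: spheroids exposed to the agents for seven days before the readout.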

Work on `Cc1nc(N2CCC3(CC2)COC(C)C3N)c(CO)nc1Sc1ccnc(N)c1Cl` (stereo unspecified) + CCn1c(-c2cc(N3CCN(C)CC3)cnc2C(C)OC)c2c3cc(ccc31)-c1csc(n1)CC(NC(=O)C1CC1C)C(=O)N1CCCC(N1)C(=O)OCC(C)(C)C2 yielded an IC50 (second compound 0.000949 µM) greater than 10 µM, an IC50 (second compound 0.003 µM) greater than 10 µM and an IC50 (second compound 0.00949 µM) of less than 0.0316 µM. The IC50 (second compound 0.03 µM) was less than 0.0316 µM, the IC50 (second compound 0.0949 µM) was less than 0.0316 µM and the IC50 (second compound 0.3 µM) was less than 0.0316 µM. It also gave a viability, T/C [1] of 80.8%, a viability, T/C [2] of 91.1% and a viability, T/C [3] of 76.1%. The viability, T/C [4] was 80.9%, the viability, T/C [5] was 64.2% and the viability, T/C [6] was 76.8%. It also gave a viability, T/C [7] of 60.9%, a viability, T/C [8] of 47.7% and a viability, T/C [9] of 64%. The viability, T/C [10] was 54.8%, the viability, T/C [11] was 47% and the viability, T/C [12] was 54.1%. For the same molecule, the viability, T/C [13] was 43.1%, the viability, T/C [14] was 34.9% and the viability, T/C [15] was 37.4%. The viability, T/C [16] was 41.1%, the viability, T/C [17] was 24.6% and the viability, T/C [18] was 29.7%. It also gave a viability, T/C [19] of 36.7%, a viability, T/C [20] of 30.2% and a viability, T/C [21] of 21%. For the same molecule, the viability, T/C [22] was 19.1%, the viability, T/C [23] was 17.3% and the viability, T/C [24] was 15.9%. For the same molecule, the viability, T/C [25] was 21.4%, the viability, T/C [26] was 27.6% and the viability, T/C [27] was 14.4%. For the same molecule, the viability, T/C [28] was 14.2%, the viability, T/C [29] was 11% and the viability, T/C [30] was 11.9%. It also gave a viability, T/C [31] of 23.4%, a viability, T/C [32] of 18.5% and a viability, T/C [33] of 20%. It also gave a viability, T/C [34] of 12.7%, a viability, T/C [35] of 10.1% and a viability, T/C [36] of 7.03%.

In the case of `Cc1nc(N2CCC3(CC2)COC(C)C3N)c(CO)nc1Sc1ccnc(N)c1Cl` (stereo unspecified) + CCn1c(-c2cccnc2C(C)OC)c2c3cc(ccc31)N1CCOC(CC(NC(=O)C(C(C)C)N(C)C(=O)C3(F)CCN(C(=O)C#CC(C)(C)N(C)C)CC3)C(=O)N3CCCC(N3)C(=O)OCC(C)(C)C2)C1, the IC50 (second compound 0.000949 µM) is reported as greater than 10 µM, the IC50 (second compound 0.003 µM) is reported as greater than 10 µM and the IC50 (second compound 0.00949 µM) is reported as greater than 10 µM. It also gave an IC50 (second compound 0.03 µM) greater than 10 µM, an IC50 (second compound 0.0949 µM) greater than 10 µM and an IC50 (second compound 0.3 µM) greater than 10 µM. It also gave a viability, T/C [1] of 85.9%, a viability, T/C [2] of 87.6% and a viability, T/C [3] of 81.8%. The viability, T/C [4] was 67.6%, the viability, T/C [5] was 81.7% and the viability, T/C [6] was 78.9%. For the same molecule, the viability, T/C [7] was 103%, the viability, T/C [8] was 98.2% and the viability, T/C [9] was 83.5%. The viability, T/C [10] was 70.4%, the viability, T/C [11] was 78.6% and the viability, T/C [12] was 80.3%. It also gave a viability, T/C [13] of 96%, a viability, T/C [14] of 71% and a viability, T/C [15] of 84.8%. It also gave a viability, T/C [16] of 87%, a viability, T/C [17] of 75.2% and a viability, T/C [18] of 81.2%. It also gave a viability, T/C [19] of 89.6%, a viability, T/C [20] of 76.8% and a viability, T/C [21] of 83.6%. For the same molecule, the viability, T/C [22] was 75.8%, the viability, T/C [23] was 83.2% and the viability, T/C [24] was 76.8%. It also gave a viability, T/C [25] of 92%, a viability, T/C [26] of 82.2% and a viability, T/C [27] of 93.6%. It also gave a viability, T/C [28] of 86.5%, a viability, T/C [29] of 94.4% and a viability, T/C [30] of 77.4%. The viability, T/C [31] was 84.1%, the viability, T/C [32] was 88.3% and the viability, T/C [33] was 72.4%. It also gave a viability, T/C [34] of 89.7%, a viability, T/C [35] of 80.3% and a viability, T/C [36] of 81.7%.

For `C=CC(=O)N1CCN(c2nc(OCC3CCCN3C)nc3c(F)c(-c4nc(N)cc(C)c4C(F)(F)F)c(Cl)cc23)C(C)C1` (stereo unspecified) + CCn1c(-c2cccnc2C(C)OC)c2c3cc(ccc31)N1CCOC(CC(NC(=O)C(C(C)C)N(C)C(=O)C3(F)CCN(C(=O)C#CC(C)(C)N(C)C)CC3)C(=O)N3CCCC(N3)C(=O)OCC(C)(C)C2)C1, the IC50 (second compound 0.000949 µM) was greater than 1 µM, the IC50 (second compound 0.003 µM) was greater than 1 µM and the IC50 (second compound 0.00949 µM) was greater than 1 µM. The IC50 (second compound 0.03 µM) was greater than 1 µM, the IC50 (second compound 0.0949 µM) was greater than 1 µM and the IC50 (second compound 0.3 µM) was greater than 1 µM. It also gave a viability, T/C (second compound 0.000949 µM, first compound 0.00316 µM) of 94.1%, a viability, T/C (second compound 0.000949 µM, first compound 0.01 µM) of 103% and a viability, T/C [1] of 101%. It also gave a viability, T/C [2] of 98.3%, a viability, T/C [3] of 103% and a viability, T/C [4] of 91.5%. The viability, T/C (second compound 0.003 µM, first compound 0.00316 µM) was 113%, the viability, T/C (second compound 0.003 µM, first compound 0.01 µM) was 101% and the viability, T/C [7] was 102%. The viability, T/C [8] was 98.9%, the viability, T/C [9] was 99.8% and the viability, T/C [10] was 104%. It also gave a viability, T/C (second compound 0.00949 µM, first compound 0.00316 µM) of 93.2%, a viability, T/C (second compound 0.00949 µM, first compound 0.01 µM) of 104% and a viability, T/C [13] of 102%. For the same molecule, the viability, T/C [14] was 96.9%, the viability, T/C [15] was 109% and the viability, T/C [16] was 106%. It also gave a viability, T/C (second compound 0.03 µM, first compound 0.00316 µM) of 102%, a viability, T/C (second compound 0.03 µM, first compound 0.01 µM) of 99.2% and a viability, T/C [19] of 104%. It also gave a viability, T/C [20] of 91.6%, a viability, T/C [21] of 114% and a viability, T/C [22] of 101%. The viability, T/C (second compound 0.0949 µM, first compound 0.00316 µM) was 84.2%, the viability, T/C (second compound 0.0949 µM, first compound 0.01 µM) was 107% and the viability, T/C [25] was 112%. For the same molecule, the viability, T/C [26] was 107%, the viability, T/C [27] was 108% and the viability, T/C [28] was 102%. The viability, T/C (second compound 0.3 µM, first compound 0.00316 µM) was 103%, the viability, T/C (second compound 0.3 µM, first compound 0.01 µM) was 98.9% and the viability, T/C [31] was 111%. For the same molecule, the viability, T/C [32] was 108%, the viability, T/C [33] was 104% and the viability, T/C [34] was 96.8%.
